Measurements published in ChEMBL document CHEMBL3301448, “MMV Malaria Box screening against Toxoplasma gondii and Entamoeba histolytica”.
pIC50: −log10 of the molar value.

Key:
Entamoeba histolytica = assay: MMV: Primary screening was performed with each compound at a 30 uM final concentration and in triplicate in sealed 96-well polystyrene microtiter plates. Parasite inocula (100 ul) comprising 20000 parasites/ml were added to each well and grown at 37 degrees C in a humidified atmosphere of 5% CO2 for 72 h. Positive controls consisted of metronidazole at 1 mg/ml. The growth of E. histolytica trophozoites in each well was determined microscopically by measuring the diameters of the confluent cells in drug-containing wells relative to those in the nega- tive-control wells.; assay type: functional, organism-based
Toxoplasma gondii = assay: MMV: A total of 100ul of inoculum was added to each well (parasite/cell ratio, ~10:1; final volume, 200 ul). Six hours after inoculation, nonadherent parasites were removed, and 100 ul of complete DMEM (1% penicillin-streptomycin, 3% FBS) supplemented with inhibitors at different concentrations (2-fold serial dilutions starting from 30 uM) was added to all except the negative-control wells. Positive controls, consisting of pyrimethamine (PYR) and sulfadiazine (SDZ) (20-mg/ml stocks in DMSO), were tested at a 2mg/ml final concentration. Each test was performed in triplicate.; assay type: functional, organism-based; conditions: 6 h

| Structure (SMILES) | pIC50 (Entamoeba histolytica) | pIC50 (Toxoplasma gondii) |
| --- | --- | --- |
| O=C(Nc1ccc(Cl)c(Cl)c1)Nc1ccc(Cl)c(Cl)c1 | < 4.52 | < 4.52 |
| COc1ccc(-c2cc3c(nn2)-c2ccccc2C3=O)cc1 | < 4.52 | < 4.52 |
| COc1ccc(C2c3ccc4ccccc4c3Oc3ncn(CCCN(C)C)c(=N)c32)cc1 (centres undefined) | < 4.52 | < 4.52 |
| N=c1n(CCN2CCCCC2)c2ccccc2n1CC(=O)c1ccc(Cl)c(Cl)c1 | < 4.52 | < 4.52 |
| Nc1nc(Nc2cccc(F)c2)nc2ccccc12 | < 4.52 | 4.54 |
| COc1ccc(/C=C2/SC(=Nc3ccccc3)NC2=O)cc1 | < 4.52 | < 4.52 |
| c1ccc(/C2=N/c3ccccc3/N=C(/c3ccccc3)c3ccccc32)cc1 | < 4.52 | < 4.52 |
| COc1ccc(-c2nc(N3CCN(C(=O)C4CCCCC4)CC3)c3c4c(sc3n2)CCCC4)cc1 | < 4.52 | < 4.52 |
| O=C(NC1CCN(Cc2ccccc2)CC1)c1cc2nc(-c3ccc(Cl)s3)cc(C(F)(F)F)n2n1 | < 4.52 | < 4.52 |
| Cc1sc(NC(=O)c2ccccc2)c(C(c2cccs2)N2CCN(c3ccccc3)CC2)c1C (centres undefined) | < 4.52 | < 4.52 |
| Cc1sc(NC(=O)c2ccco2)c(C(c2cccnc2)N2CCC(Cc3ccccc3)CC2)c1C (centres undefined) | < 4.52 | < 4.52 |
| CCOC(=O)c1c(C)n(-c2ccccc2)c2ccc(OC(=O)c3cc(OC)c(OC)c(OC)c3)cc12 | < 4.52 | < 4.52 |
| COc1cc(C(=O)Nc2nc3c(cc4c5c(cccc53)CC4)s2)cc(OC)c1OC | < 4.52 | < 4.52 |
| COc1ccc(CCN2C(=O)c3[nH]nc(-c4cc(Cl)c(C)cc4O)c3C2c2ccccc2F)cc1 (centres undefined) | < 4.52 | < 4.52 |
| N#Cc1nc(Cc2cccc3ccccc23)oc1N1CCN(C(c2ccccc2)c2ccccc2)CC1 | < 4.52 | < 4.52 |
| COc1ccc(C2c3ccc4ccccc4c3Oc3ncn(CCCn4ccnc4)c(=N)c32)cc1OC (centres undefined) | < 4.52 | < 4.52 |
| CN(N=O)C1=C(NC2CCCCC2)C(=O)c2ccccc2C1=O | < 4.52 | < 4.52 |
| OC1=C2C(=Nc3ccccc3SC2c2ccccc2)c2ccccc21 (centres undefined) | < 4.52 | < 4.52 |
| COc1cc(C(=O)Nc2ccc(-c3nc4ccccc4[nH]3)cc2)cc(OC)c1OC | < 4.52 | < 4.52 |
| CCOc1ccc(N2C(N)=NC(N)=NC2(C)C)cc1 | < 4.52 | < 4.52 |
| COc1cccc(Nc2nc(N)c3ccccc3n2)c1 | < 4.52 | 4.55 |

| Structure (SMILES) | pIC50 (Entamoeba histolytica) | pIC50 (Toxoplasma gondii) |
| --- | --- | --- |
| Cc1ccc(C(=O)c2oc3ccc4c(C)cc(=O)oc4c3c2C)cc1 | < 4.52 | < 4.52 |
| COc1ccc(CN2CCCC(C(=O)c3ccc(C(F)(F)F)cc3)C2)c(O)c1 (centres undefined) | < 4.52 | < 4.52 |
| COC(=O)c1ccc(C2C3=C(O)CC(c4ccc(F)cc4)CC3=Nc3ccccc3N2C(=O)c2ccccc2)cc1 (centres undefined) | < 4.52 | < 4.52 |
| CCCCCCc1cc2cc(-c3csc(C=Cc4ccccc4)n3)c(=O)oc2cc1O | < 4.52 | < 4.52 |
| O=C(CCl)NCCOc1ccc(Cl)cc1Cl | < 4.52 | < 4.52 |
| Oc1ccc(-c2nc(-c3ccc4oc5ccc(-c6[nH]c(-c7ccc(O)cc7)nc6-c6ccccc6)cc5c4c3)c(-c3ccccc3)[nH]2)cc1 | < 4.52 | < 4.52 |
| CC(Oc1ccc(NC(=O)c2cccs2)cc1)C(=O)c1ccc(Cl)cc1 (centres undefined) | < 4.52 | 4.98 |
| CCOc1ccc(CN2CCN(CC(O)COc3ccc(OCC(O)CN4CCN(Cc5ccc(OCC)cc5)CC4)cc3)CC2)cc1 (centres undefined) | < 4.52 | < 4.52 |
| CCCCNc1nc(NC(C)(C)C)nc(NC(C)(C)C)n1 | < 4.52 | < 4.52 |
| COc1ccc(CNC(=O)c2cc3c(=O)n4ccccc4nc3n(CCc3ccccc3)c2=N)cc1 | < 4.52 | < 4.52 |
| Brc1ccc(Nc2nc3ccccc3nc2Nc2ccc(Br)cc2)cc1 | < 4.52 | < 4.52 |
| O=C(NC1CCN(Cc2ccccc2)CC1)c1cc(C(=O)NC2CCN(Cc3ccccc3)CC2)cc(C(=O)NC2CCN(Cc3ccccc3)CC2)c1 | < 4.52 | < 4.52 |
| COc1ccc(CCn2c(=N)c(C(=O)NCc3cccnc3)cc3c(=O)n4cccc(C)c4nc32)cc1 | < 4.52 | < 4.52 |
| CC(=O)c1sc(NC(=O)Nc2ccc(C)cc2C)nc1C | < 4.52 | < 4.52 |
| COc1ccc(-c2cn3c(C(=O)Nc4ccccc4Cl)c(-c4ccccc4)c4c3n2CCCC4)cc1 | < 4.52 | < 4.52 |
| Cn1c(=O)n(C)c2cc(CNCCNc3ccnc4cc(Cl)ccc34)ccc21 | < 4.52 | < 4.52 |
| Cc1cc(Nc2ccc(OCc3ccccc3)cc2)nc2cc(O)ccc12 | < 4.52 | < 4.52 |
| CCN(CC)CCNc1ccnc2cc3ccccc3cc12 | < 4.52 | < 4.52 |
| CCOc1ccc2nc(C)cc(Nc3ccc(N(C)C)cc3)c2c1 | < 4.52 | < 4.52 |
| COc1ccc(Nc2cc(C)nc(NCc3ccccc3)n2)cc1 | < 4.52 | < 4.52 |
| N=c1c2ccccc2nnn1-c1cccc(C(F)(F)F)c1 | < 4.52 | < 4.52 |

| Structure (SMILES) | pIC50 (Entamoeba histolytica) | pIC50 (Toxoplasma gondii) |
| --- | --- | --- |
| COc1cc(-c2nc(-c3ccc(Sc4ccccc4)cc3)c(-c3ccccc3)[nH]2)cc(OC)c1O | < 4.52 | 5.23 |
| COc1ccc(C=C2SC(Nc3ccc(F)cc3)=NC2=O)c(OC)c1 | < 4.52 | < 4.52 |
| Oc1ccc2ccccc2c1CNc1nc2ccccc2[nH]1 | < 4.52 | < 4.52 |
| O=C(Nc1ccc(-c2nc3ccccc3[nH]2)cc1)c1ccc(Cl)c(Cl)c1 | < 4.52 | < 4.52 |
| O=C1c2ccc3c4c(ccc(c24)C(=O)N1CCCCO)C(=O)N(CCCCO)C3=O | < 4.52 | < 4.52 |
| O=C(Nc1ccc(-c2nc3cc(NC(=O)c4ccc(Cl)cc4)ccc3[nH]2)cc1)c1ccc(Cl)cc1 | < 4.52 | < 4.52 |
| OC(Cn1nnc2ccccc21)Cn1c2ccc(Br)cc2c2cc(Br)ccc21 (centres undefined) | < 4.52 | < 4.52 |
| CCOC(=O)c1cnc2ccc(OC)cc2c1Nc1ccc(N2CCN(C)CC2)cc1 | < 4.52 | < 4.52 |
| COc1ccccc1C(=O)ON=C(N)Cc1cccc2ccccc12 | < 4.52 | < 4.52 |
| COc1ccc(C(=O)C(CCC(CNC(C)(C)C)C(=O)c2ccc(OC)cc2)CNC(C)(C)C)cc1 (centres undefined) | < 4.52 | 5.08 |
| CCOc1cc2c(cc1OCC)C(c1cc(Cl)ccc1O)NCC2 (centres undefined) | < 4.52 | < 4.52 |
| COc1cc(C(=O)ON=C(N)Cc2cccc3ccccc23)cc(OC)c1OC | < 4.52 | < 4.52 |
| CN1C=C(c2ccc3ccccc3n2)C(c2c[nH]c3ccccc23)c2ccccc21 (centres undefined) | < 4.52 | < 4.52 |
| Oc1c(C(Nc2ccccn2)c2cccc(Oc3ccccc3)c2)ccc2cccnc12 (centres undefined) | < 4.52 | < 4.52 |
| COc1cc(-c2nc(-c3ccccc3)c(-c3ccccc3)[nH]2)cc(OC)c1O | < 4.52 | < 4.52 |
| Cc1ccc(-c2nc3ccccc3o2)cc1NCc1cc(Cc2ccccc2)ccc1O | < 4.52 | < 4.52 |
| OC(CNC1CCCCC1)Cn1c2ccc(I)cc2c2cc(I)ccc21 (centres undefined) | < 4.52 | < 4.52 |
| COc1ccc(C(O)(CCC(C)C)C(CN2CCOCC2)c2ccc(Cl)cc2)cc1 (centres undefined) | < 4.52 | < 4.52 |
| CCn1c2c(c(=N)c3c1CCC3)CCCC2 | < 4.52 | < 4.52 |
| O=C(Cc1ccccc1)NC(c1ccc(Cl)cc1)c1c(O)ccc2ccccc12 (centres undefined) | < 4.52 | < 4.52 |
| COc1cc(CNCCc2ccc(Cl)cc2)cc(OC)c1O | < 4.52 | < 4.52 |

| Structure (SMILES) | pIC50 (Entamoeba histolytica) | pIC50 (Toxoplasma gondii) |
| --- | --- | --- |
| Cc1ccc2c(C)nc(Nc3nc(C)cc(-c4ccccc4)n3)nc2c1 | < 4.52 | < 4.52 |
| c1ccc(CNc2nc(Nc3ccccc3)nc3ccccc23)cc1 | < 4.52 | < 4.52 |
| CCOc1ccc(Nc2ccnc3cc(Cl)ccc23)cc1 | < 4.52 | < 4.52 |
| Cc1cccc(N2C(=O)C3C(C2=O)C2(c4ccccc4)C(=O)C3(c3ccccc3)C(c3ccc4c(c3)OCO4)=C2c2ccc3c(c2)OCO3)c1 (centres undefined) | < 4.52 | < 4.52 |
| Oc1ccc(Br)cc1CN1CCN(Cc2ccc(Cl)cc2)CC1 | < 4.52 | 4.84 |
| Cc1ccc(F)cc1NC(=O)c1cc(Cl)ccc1Nc1ccccc1 | < 4.52 | < 4.52 |
| CCOc1ccc2nc(C)cc(Nc3ccc(Br)cc3)c2c1 | < 4.52 | < 4.52 |
| COc1cc2c3cc1Oc1c(OC)c(OC)cc4c1C(Cc1ccc(O)c(c1)Oc1ccc(cc1)CC3N(C)CC2)N(C)CC4 (centres undefined) | < 4.52 | < 4.52 |
| CCCCCCc1cc2cc(-c3nc4ccccc4[nH]3)c(=Nc3ccccc3C)oc2cc1O | < 4.52 | 5.20 |
| Cc1ccc(C)c(-c2csc(Nc3ccc(C)c(C)c3)n2)c1 | < 4.52 | < 4.52 |
| CCOc1c(Br)cc(C2C(C(=O)OC)=CN(C)C=C2C(=O)OC)cc1OC | < 4.52 | < 4.52 |
| COc1ccc2sc(N(Cc3cccnc3)C(=O)c3ccc(C#N)cc3)nc2c1 | < 4.52 | < 4.52 |
| CC1CC2=C(CC1CNCCCN(C)C)C(C)(C)CCC2 (centres undefined) | < 4.52 | < 4.52 |
| CN(C)c1ccc(N=Cc2ccc(N3CCOCC3)cc2)cc1 | < 4.52 | < 4.52 |
| CCOC(=O)c1cnc2ccc(OC)cc2c1NCc1ccccc1 | < 4.52 | < 4.52 |
| CCOC(=O)C1=CN(C)C=C(C(=O)OCC)C1c1cc(Br)c(OCC)c(OC)c1 | < 4.52 | < 4.52 |
| CC(C)(C)c1ccc(C2CC3=Nc4ccccc4N(C(=O)c4ccccc4Cl)C(c4ccc(F)cc4)C3=C(O)C2)cc1 (centres undefined) | < 4.52 | < 4.52 |
| CN1CCN(c2nc(Nc3ccc(O)cc3)nc3ccccc23)CC1 | < 4.52 | < 4.52 |
| CCCCc1c(CCC)c(=N)c2ccccc2n1C | < 4.52 | < 4.52 |
